Measured values from patent US6770442B2, “Methods for modulating the solubility of synthetic polymers” (Boston Probes, Inc., priority 1998, dated 2004).

What was measured:
[1] = UV Tm analysis of unimolecular PNA hairpins (9 bp stem duplex); format: physicochemical; conditions: for cooperativity of sigmoidal melting transition (normalized absorbance vs. temperature): each probe at [1], FIG. 11
Experimental: The five Tm Samples of a dilution series of a particular unimolecular probe to be analyzed were simultaneously examined using a Cary 100 Bio UV-Visible Spectrophotometer (Varian Instruments) equipped with a 6×6 thermostatable multicell block running Win UV Bio application software package. To a 10×10 UV cell (Starna Cells, P/N 21-Q-10) was added a 7.2 mm stir bar and the 2.5 mL of each sample of the dilution series. The stirring accessory was used during all analysis. All samples were thermally denatured and reannealed prior to data collection by having the instrument rapidly ramp the temperature to a point above the melting temperature and then holding that temperature for 5-10 minutes before returning to the starting temperature. The temperature range over which data was collected was varied in response to the expected Tm which was roughly determined during the premelt and prereannealing step. Regardless of the temperature range, the temperature ramp rate for both melting “M” and reannealing “R” was always 0.5°C./min. The absorbance (260 nm, averaged over a 3 second collection) was plotted vs. the temperature of the multicell block.
After the Tm analysis was performed in Tm Buffer, to each cell was added 0.5 μL of 5M MgCl2 to thereby prepare a sample containing 1 mM MgCl2. The dilution effect was considered to be negligible. The Tm analysis was then performed again to determine whether the presence of MgCl2 had any; effect on the Tm of the unimolecular probe.
After the Tm analysis was performed in Tm Buffer and 1 mM MgCl2, to each cell was added 42 μL of saturated NaCl (approximately 6.11 M/L). The dilution effect was again considered to be negligible. The Tm analysis was then performed again to determine whether the presence of approximately 100 mM NaCl had any effect on the Tm of the unimolecular probe.

[2] = Solubility of labeled PNA oligomer in aqueous buffer
[3] = [1] approx. 7.5 μM, Buf, Mg & Na: Tm Buffer, 1 mM MgCl2 and 100 mM NaCl
[4] = [1] approx. 7.5 μM, Buf, Mg: Tm Buffer and 1 mM MgCl2
[5] = [2] approx. 3.75 μM, Buf, Mg & Na: Tm Buffer, 1 mM MgCl2 and 100 mM NaCl
[6] = [2] approx. 3.75 μM, Buf, Mg: Tm Buffer and 1 mM MgCl2
[7] = [2] approx. 3.75 μM, Buf: Tm Buffer
[8] = [3] approx. 1.87 μM, Buf, Mg & Na: Tm Buffer, 1 mM MgCl2 and 100 mM NaCl
[9] = [3] approx. 1.87 μM, Buf, Mg: Tm Buffer and 1 mM MgCl2
[10] = [3] approx. 1.87 μM, Buf: Tm Buffer
[11] = [4] approx. 0.94 μM, Buf, Mg & Na: Tm Buffer, 1 mM MgCl2 and 100 mM NaCl
[12] = [4] approx. 0.94 μM, Buf, Mg: Tm Buffer and 1 mM MgCl2
[13] = [4] approx. 0.94 μM, Buf: Tm Buffer
[14] = [5] approx. 0.468 μM, Buf, Mg & Na: Tm Buffer, 1 mM MgCl2 and 100 mM NaCl
[15] = [5] approx. 0.468 μM, Buf, Mg: Tm Buffer and 1 mM MgCl2
[16] = [5] approx. 0.468 μM, Buf: Tm Buffer

Substance | Tm, melting M [1, 3] | Tm, reannealing R [1, 3] | Tm, melting M [1, 4] | Tm, reannealing R [1, 4] | Tm, melting M [1, 5] | Tm, melting M [1, 6] | Tm, reannealing R [1, 6] | Tm, melting M [1, 7] | Tm, reannealing R [1, 7] | Tm, melting M [1, 8] | Tm, melting M [1, 9] | Tm, reannealing R [1, 9] | Tm, melting M [1, 10] | Tm, reannealing R [1, 10] | Tm, melting M [1, 11] | Tm, reannealing R [1, 11] | Tm, melting M [1, 12] | Tm, melting M [1, 13] | Tm, reannealing R [1, 13] | Tm, melting M [1, 14] | other results
Flu-OEE-ATA-TAT-TGG-CTG-ATC-CAA-TAT-AT-EE-K(dabcyl)-NH2 [P4] | 82.6 °C | 81.8 °C | 81.6 °C | 81.0 °C | 82.6 °C | 81.6 °C | 81.5 °C | 81.6 °C | 81.4 °C | 82.6 °C | 82.0 °C | 81.5 °C | 82.1 °C | 81.5 °C | 82.5 °C | 82.5 °C | 82.0 °C | 82.0 °C | 81.5 °C | 83.0 °C | Tm, reannealing R [1, 5]: 82.4 °C; Tm, reannealing R [1, 8]: 82.5 °C; Tm, reannealing R [1, 12]: 81.1 °C; Tm, reannealing R [1, 14]: 82.1 °C; Tm, melting M [1, 15]: 82.0 °C; Tm, reannealing R [1, 15]: 81.6 °C; Tm, melting M [1, 16]: 81.5 °C; Tm, reannealing R [1, 16]: 81.1 °C; concentration up to which completely soluble [2]: ≥ 7.5 μM/L
H-ATA-TAT-TGG-CTG-ATC-CAA-TAT-AT-KK-NH2 [PNAD, reference compound] | 80.6 °C | 80.4 °C | 80.6 °C | 80.3 °C | 81.5 °C | 81.1 °C | 80.4 °C | 81.1 °C | 81.0 °C | 81.0 °C | 81.1 °C | 80.4 °C | 82.0 °C | 81.0 °C | 81.5 °C | 80.5 °C | 80.5 °C | 81.5 °C | 81.5 °C | 82.1 °C | Tm, reannealing R [1, 8]: 81.4 °C; Tm, reannealing R [1, 12]: 81.0 °C; Tm, reannealing R [1, 14]: 80.6 °C; Tm, melting M [1, 15]: 80.5 °C; Tm, reannealing R [1, 15]: 80.5 °C; Tm, melting M [1, 16]: 81.5 °C; Tm, reannealing R [1, 16]: 81.1 °C; cooperativity of sigmoidal melting transition (normalized absorbance vs. temperature) [1]: least cooperative sigmoidal transition
H-OEE-ATA-TAT-TGG-CTG-ATC-CAA-TAT-AT-EEK-NH2 [P4N] | 82.1 °C | 82.3 °C | 81.6 °C | 81.3 °C | 82.1 °C | 81.6 °C | 81.3 °C | 82.1 °C | 81.5 °C | 82.5 °C | 82.1 °C | 81.4 °C | 82.1 °C | 81.5 °C | 82.0 °C | 82.0 °C | 82.0 °C | 82.5 °C | 81.1 °C | 84.0 °C | Tm, reannealing R [1, 5]: 82.3 °C; Tm, reannealing R [1, 14]: 81.6 °C; Tm, melting M [1, 15]: 82.0 °C; Tm, reannealing R [1, 15]: 81.1 °C; Tm, melting M [1, 16]: 82.0 °C; Tm, reannealing R [1, 16]: 80.1 °C; cooperativity of sigmoidal melting transition (normalized absorbance vs. temperature) [1]: only a slightly less cooperative a transition as compared with probe P3N
H-OEE-ATA-TAT-TGG-OO-CCA-ATA-TAT-EEK-NH2 [P3N] | 83.1 °C | 82.9 °C | 83.1 °C | 82.4 °C | 83.1 °C | 83.1 °C | 81.9 °C | 82.5 °C | 82.4 °C | 83.5 °C | 83.0 °C | 82.5 °C | 83.0 °C | 82.4 °C | 83.5 °C | 83.0 °C | 83.0 °C | 83.0 °C | 82.5 °C | 83.5 °C | Tm, reannealing R [1, 5]: 81.4 °C; Tm, reannealing R [1, 8]: 82.9 °C; Tm, reannealing R [1, 12]: 83.1 °C; Tm, reannealing R [1, 14]: 83.1 °C; Tm, melting M [1, 15]: 83.0 °C; Tm, reannealing R [1, 15]: 82.6 °C; Tm, melting M [1, 16]: 83.0 °C; Tm, reannealing R [1, 16]: 82.6 °C; cooperativity of sigmoidal melting transition (normalized absorbance vs. temperature) [1]: most cooperative sigmoidal transition
